Measured values: PubChem BioAssay AID1963854 (Molecular Pharmacology Branch, DTP, NCI, 2024)

Test system: 186277-243-T-J2-PDC complex spheroid viability
Experiment: Anticancer human tumor 186277-243-T-J2-PDC patient-derived colon adenocarcinoma cell line growth inhibition [POLQ]
Conditions: for IC50: curve of first compound; for viability, T/C: stronger effect = lower value
Method in brief: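 PDC + HUVEC + MSC complex spheroids; POLQ inhibitors ± partner drugs; top conc. at/near clinical Cmax, else 10 microM (SN-38 1 microM), half-log dilutions; 37 degrees C, 5% CO2.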

[1] = second compound 0.0316 µM, first compound 0.00316 µM
[2] = second compound 0.0316 µM, first compound 0.01 µM
[3] = second compound 0.0316 µM, first compound 0.0316 µM
[4] = second compound 0.0316 µM, first compound 0.1 µM
[5] = second compound 0.0316 µM, first compound 0.316 µM
[6] = second compound 0.0316 µM, first compound 1 µM
[7] = second compound 0.1 µM, first compound 0.00316 µM
[8] = second compound 0.1 µM, first compound 0.01 µM
[9] = second compound 0.1 µM, first compound 0.0316 µM
[10] = second compound 0.1 µM, first compound 0.1 µM
[11] = second compound 0.1 µM, first compound 0.316 µM
[12] = second compound 0.1 µM, first compound 1 µM
[13] = second compound 0.316 µM, first compound 0.00316 µM
[14] = second compound 0.316 µM, first compound 0.01 µM
[15] = second compound 0.316 µM, first compound 0.0316 µM
[16] = second compound 0.316 µM, first compound 0.1 µM
[17] = second compound 0.316 µM, first compound 0.316 µM
[18] = second compound 0.316 µM, first compound 1 µM
[19] = second compound 1 µM, first compound 0.00316 µM
[20] = second compound 1 µM, first compound 0.01 µM
[21] = second compound 1 µM, first compound 0.0316 µM
[22] = second compound 1 µM, first compound 0.1 µM
[23] = second compound 1 µM, first compound 0.316 µM
[24] = second compound 1 µM, first compound 1 µM
[25] = second compound 3.16 µM, first compound 0.00316 µM
[26] = second compound 3.16 µM, first compound 0.01 µM
[27] = second compound 3.16 µM, first compound 0.0316 µM
[28] = second compound 3.16 µM, first compound 0.1 µM
[29] = second compound 3.16 µM, first compound 0.316 µM
[30] = second compound 3.16 µM, first compound 1 µM
[31] = second compound 10 µM, first compound 0.00316 µM
[32] = second compound 10 µM, first compound 0.01 µM
[33] = second compound 10 µM, first compound 0.0316 µM
[34] = second compound 10 µM, first compound 0.1 µM
[35] = second compound 10 µM, first compound 0.316 µM
[36] = second compound 10 µM, first compound 1 µM
[37] = second compound 0.0316 µM, first compound 3.16 µM
[38] = second compound 0.0316 µM, first compound 10 µM
[39] = second compound 0.1 µM, first compound 3.16 µM
[40] = second compound 0.1 µM, first compound 10 µM
[41] = second compound 0.316 µM, first compound 3.16 µM
[42] = second compound 0.316 µM, first compound 10 µM
[43] = second compound 1 µM, first compound 3.16 µM
[44] = second compound 1 µM, first compound 10 µM
[45] = second compound 3.16 µM, first compound 3.16 µM
[46] = second compound 3.16 µM, first compound 10 µM
[47] = second compound 10 µM, first compound 3.16 µM
[48] = second compound 10 µM, first compound 10 µM
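Further: spheroids exposed to compounds for seven days.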
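Wherever viability, T/C is given: 100% = DMSO vehicle control viability.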

C=CCn1c(=O)c2cnc(Nc3ccc(N4CCN(C)CC4)cc3)nc2n1-c1cccc(C(C)(C)O)n1 + COC1C(OC(N)=O)C(O)C(Oc2ccc3c(O)c(NC(=O)c4ccc(O)c(CC=C(C)C)c4)c(=O)oc3c2C)OC1(C)C
IC50 (second compound 0.0316 µM): 189 nM
IC50 (second compound 0.1 µM): 185 nM
IC50 (second compound 0.316 µM): 190 nM
IC50 (second compound 1 µM): 182 nM
IC50 (second compound 3.16 µM): 177 nM
IC50 (second compound 10 µM): 178 nM
viability, T/C [1]: 100%
viability, T/C [2]: 88.2%
viability, T/C [3]: 109%
viability, T/C [4]: 93.4%
viability, T/C [5]: 14.8%
viability, T/C [6]: 7.82%
viability, T/C [7]: 83.8%
viability, T/C [8]: 97.8%
viability, T/C [9]: 107%
viability, T/C [10]: 91.3%
viability, T/C [11]: 13.7%
viability, T/C [12]: 7.76%
viability, T/C [13]: 93.4%
viability, T/C [14]: 87.7%
viability, T/C [15]: 99.2%
viability, T/C [16]: 100%
viability, T/C [17]: 14.1%
viability, T/C [18]: 8.59%
viability, T/C [19]: 103%
viability, T/C [20]: 104%
viability, T/C [21]: 104%
viability, T/C [22]: 91.8%
viability, T/C [23]: 11.1%
viability, T/C [24]: 8.27%
viability, T/C [25]: 104%
viability, T/C [26]: 96.2%
viability, T/C [27]: 109%
viability, T/C [28]: 85.8%
viability, T/C [29]: 13.5%
viability, T/C [30]: 7.48%
viability, T/C [31]: 104%
viability, T/C [32]: 110%
viability, T/C [33]: 95.2%
viability, T/C [34]: 87.6%
viability, T/C [35]: 12%
viability, T/C [36]: 7.75%

COc1cccc(OCCCN)c1-c1cc(Nc2cnc(C#N)cn2)n[nH]1 + COC1C(OC(N)=O)C(O)C(Oc2ccc3c(O)c(NC(=O)c4ccc(O)c(CC=C(C)C)c4)c(=O)oc3c2C)OC1(C)C
IC50 (second compound 0.0316 µM): < 3.16 nM
IC50 (second compound 0.1 µM): < 3.16 nM
IC50 (second compound 0.316 µM): < 3.16 nM
IC50 (second compound 1 µM): < 3.16 nM
IC50 (second compound 3.16 µM): < 3.16 nM
IC50 (second compound 10 µM): < 3.16 nM
viability, T/C [1]: 8.14%
viability, T/C [2]: 5.13%
viability, T/C [3]: 4.48%
viability, T/C [4]: 4.86%
viability, T/C [5]: 4.49%
viability, T/C [6]: 5.84%
viability, T/C [7]: 9.53%
viability, T/C [8]: 5.58%
viability, T/C [9]: 4.93%
viability, T/C [10]: 4.32%
viability, T/C [11]: 4.26%
viability, T/C [12]: 5.58%
viability, T/C [13]: 9.04%
viability, T/C [14]: 5.2%
viability, T/C [15]: 5.3%
viability, T/C [16]: 4.89%
viability, T/C [17]: 4.61%
viability, T/C [18]: 5.48%
viability, T/C [19]: 8.31%
viability, T/C [20]: 6.44%
viability, T/C [21]: 4.79%
viability, T/C [22]: 4.46%
viability, T/C [23]: 4.72%
viability, T/C [24]: 5.47%
viability, T/C [25]: 7.66%
viability, T/C [26]: 5.09%
viability, T/C [27]: 4.84%
viability, T/C [28]: 4.62%
viability, T/C [29]: 4.32%
viability, T/C [30]: 5.85%
viability, T/C [31]: 6.16%
viability, T/C [32]: 5.21%
viability, T/C [33]: 4.7%
viability, T/C [34]: 4.65%
viability, T/C [35]: 5.39%
viability, T/C [36]: 6.57%

CC1COCCN1c1cc(-c2ccnn2C)c2ccnc(-c3ccn[nH]3)c2n1 (stereo not drawn) + COC1C(OC(N)=O)C(O)C(Oc2ccc3c(O)c(NC(=O)c4ccc(O)c(CC=C(C)C)c4)c(=O)oc3c2C)OC1(C)C
IC50 (second compound 0.0316 µM): 42.6 nM
IC50 (second compound 0.1 µM): 45.8 nM
IC50 (second compound 0.316 µM): 45.6 nM
IC50 (second compound 1 µM): 47.4 nM
IC50 (second compound 3.16 µM): 42.8 nM
IC50 (second compound 10 µM): 51.2 nM
viability, T/C [3]: 63.9%
viability, T/C [4]: 10.3%
viability, T/C [5]: 4.76%
viability, T/C [6]: 4.28%
viability, T/C [37]: 3.3%
viability, T/C [38]: 3.81%
viability, T/C [9]: 68.6%
viability, T/C [10]: 10.9%
viability, T/C [11]: 4.88%
viability, T/C [12]: 3.51%
viability, T/C [39]: 2.82%
viability, T/C [40]: 3.8%
viability, T/C [15]: 67.6%
viability, T/C [16]: 12.2%
viability, T/C [17]: 4.58%
viability, T/C [18]: 3.36%
viability, T/C [41]: 2.79%
viability, T/C [42]: 3.64%
viability, T/C [21]: 71%
viability, T/C [22]: 11.4%
viability, T/C [23]: 5.31%
viability, T/C [24]: 3.57%
viability, T/C [43]: 3.29%
viability, T/C [44]: 4.22%
viability, T/C [27]: 63.9%
viability, T/C [28]: 11.1%
viability, T/C [29]: 4.98%
viability, T/C [30]: 3.47%
viability, T/C [45]: 4.1%
viability, T/C [46]: 3.47%
viability, T/C [33]: 77.8%
viability, T/C [34]: 11.6%
viability, T/C [35]: 5.41%
viability, T/C [36]: 3.59%
viability, T/C [47]: 4.37%
viability, T/C [48]: 3.76%

CC1COCCN1c1cc(C2(O)CC3CCC(C2)O3)c2cnn(-c3ccn[nH]3)c2n1 (stereo not drawn) + Cc1cccc(N(C)C(=O)C2C(O)CCN2c2nc(C)cc(C(F)(F)F)c2C#N)c1
IC50 (second compound 0.0316 µM): 43.3 nM
IC50 (second compound 0.1 µM): 42.2 nM
IC50 (second compound 0.316 µM): 44 nM
IC50 (second compound 1 µM): 42.6 nM
IC50 (second compound 3.16 µM): 37.7 nM
IC50 (second compound 10 µM): < 31.6 nM
viability, T/C [3]: 64.5%
viability, T/C [4]: 11.7%
viability, T/C [5]: 6.18%
viability, T/C [6]: 3.85%
viability, T/C [37]: 4.2%
viability, T/C [38]: 4.79%
viability, T/C [9]: 63.9%
viability, T/C [10]: 8.95%
viability, T/C [11]: 5.9%
viability, T/C [12]: 3.73%
viability, T/C [39]: 3.97%
viability, T/C [40]: 3.76%
viability, T/C [15]: 65.4%
viability, T/C [16]: 12.1%
viability, T/C [17]: 4.75%
viability, T/C [18]: 3.38%
viability, T/C [41]: 4.54%
viability, T/C [42]: 3.64%
viability, T/C [21]: 63.3%
viability, T/C [22]: 12.2%
viability, T/C [23]: 5.42%
viability, T/C [24]: 3.92%
viability, T/C [43]: 4.12%
viability, T/C [44]: 4.45%
viability, T/C [27]: 57.4%
viability, T/C [28]: 9.6%
viability, T/C [29]: 5.36%
viability, T/C [30]: 3.46%
viability, T/C [45]: 4.49%
viability, T/C [46]: 4.05%
viability, T/C [33]: 45.9%
viability, T/C [34]: 8.7%
viability, T/C [35]: 4.15%
viability, T/C [36]: 3.16%
viability, T/C [47]: 4.29%
viability, T/C [48]: 3.09%
